The values that follow come from US20240246964A1 (Arbutus Biopharma Corporation, priority 2021, published 2024).

Where two headings read alike, the source gives them in different places.

One assay concerns the target human PD-L1 (Homo sapiens (Human), UniProt Q9NZQ7). The assay can be described thus: T cell activation luciferase reporter cell culture system (T Cell Activation Assay). It is filed as cell-based. A general note: Reporter assays use an easily measured gene product as a stand-in for the process of interest.
In assay [1] the target is PD-L1 His protein / PD-1 Fc protein (Homo sapiens (Human), UniProt Q9NZQ7). The assay can be described thus: HTRF Assay (PD-1/PD-L1 interaction). It is filed as binding. (In general: In TR-FRET formats the signal depends on donor and acceptor labels being close together.)
The mark [2] stands for this setting: luciferase reporter assay, PD-L1 aAPC/CHO-K1 cells with PD-1 effector Jurkat T cells.

Chain of human PD-L1 (Q9NZQ7 19-290): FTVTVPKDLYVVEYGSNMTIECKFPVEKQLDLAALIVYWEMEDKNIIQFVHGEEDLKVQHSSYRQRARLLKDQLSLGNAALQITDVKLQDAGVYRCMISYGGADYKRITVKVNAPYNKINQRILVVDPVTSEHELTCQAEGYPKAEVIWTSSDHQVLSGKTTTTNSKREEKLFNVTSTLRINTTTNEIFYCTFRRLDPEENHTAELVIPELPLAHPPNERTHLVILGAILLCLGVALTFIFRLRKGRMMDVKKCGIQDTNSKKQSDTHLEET
Chain of PD-L1 His protein / PD-1 Fc protein (Q9NZQ7 19-238): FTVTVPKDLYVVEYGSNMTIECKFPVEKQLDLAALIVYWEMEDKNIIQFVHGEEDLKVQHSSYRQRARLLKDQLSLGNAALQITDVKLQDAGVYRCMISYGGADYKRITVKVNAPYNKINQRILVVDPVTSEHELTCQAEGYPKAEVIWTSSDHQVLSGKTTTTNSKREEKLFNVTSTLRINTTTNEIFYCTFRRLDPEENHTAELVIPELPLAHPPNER

One may read the EC50 as the midpoint of the concentration-response curve. As a reminder, the IC50 is the concentration needed to halve the response being measured. A low value points to greater potency. On to `COc1nc(-c2cccc(-c3ccnc(-c4ccc5c(CNC6CCN(C(C)=O)CC6)nn(C)c5c4)c3Cl)c2Cl)ccc1CNC[C@@H]1CCC(=O)N1` [Compound 167, (S)-5-((((6-(3-(2-(3-(((1-acetylpiperidin-4-yl)amino)methyl)-1-methyl-1H-indazol-6-yl)-3-chloropyridin-4-yl)-2-chlorophenyl)-2-methoxypyridin-3-yl)methyl)amino)methyl)pyridine1332ne-2-one], for which the concentration giving a half-maximal response (EC50) at human PD-L1 (setting [2]) was 18.4 nM. The compound also came in with an IC50 in assay [1] (PD-L1 His 6 nM, PD-1 Fc 6 nM) of 1.47 nM.
On the same counts, the results for `COc1nc(-c2cccc(-c3nccc(-c4ccc(CN5CC6(CNC(=O)C6)C5)c(OC)n4)c3Cl)c2Cl)ccc1CNC1CCN(C(C)=O)CC1` [Compound 680, 2-((2′-(3-(5-(((1-Acetylpiperidin-4-yl)amino)methyl)-6-methoxypyridin-2-yl)-2-chlorophenyl)-3′-chloro-6-methoxy-[2,4′-bipyridin]-5-yl)methyl)-2,6-diazaspiro[3.4]octan-7-one] are 26.3 nM and 0.03 nM.
Take `COc1cc(-c2nccc(-c3cccc(NC(=O)c4ccc(CNCCO)cn4)c3Cl)c2Cl)ccc1CNC[C@@H]1CCC(=O)N1` [Example 755, (S)—N-(2-Chloro-3-(3-chloro-2-(3-methoxy-4-((((5-oxopyrrolidin-2-yl)methyl)amino)methyl)phenyl)pyridin-4-yl)phenyl)-5-(((2-hydroxyethyl)amino)methyl)picolinamide]: a half-maximal response on human PD-L1 (setting [2]) (EC50) required 4.48 nM. The compound also came in with an IC50 in assay [1] (PD-L1 His 6 nM, PD-1 Fc 6 nM) of 0.12 nM.
For `COc1nc(-c2cccc(-c3ccnc(-c4ccc(CN5CC6(C5)CN(C(C)=O)C6)c(OC(F)F)c4)c3Cl)c2Cl)ccc1CN1CC2(CNC(=O)C2)C1` [Example 662, 2-((6-(3-(2-(4-((6-Acetyl-2,6-diazaspiro[3.3]heptan-2-yl)methyl)-3-(difluoromethoxy)phenyl)-3-chloropyridin-4-yl)-2-chlorophenyl)-2-methoxypyridin-3-yl)methyl)-2,6-diazaspiro[3.4]octan-7-one], in that order: 18.5 nM and 0.74 nM.
In turn, `COc1nc(-c2cccc(-c3ccnc(-c4ccc5c(CNC[C@H](C)OC)cn(C)c5c4)c3Cl)c2Cl)ccc1CNC[C@@H]1CCC(=O)N1` [Compound 40, (S)-5-((((6-(2-chloro-3-(3-chloro-2-(3-((((S)-2-methoxypropyl)amino)methyl)-1-methyl-1H-indol-6-yl)pyridin-4-yl)phenyl)-2-methoxypyridin-3-yl)methyl)amino)methyl)pyrrolidin-2-one] showed an EC50 on human PD-L1 (setting [2]) of 4150 nM. In assay [1] (PD-L1 His 6 nM, PD-1 Fc 6 nM), this compound came in with an IC50 of 10.3 nM.
On the same counts, the results for `COc1cc(-c2cccc(-c3ccnc(-c4cnc(CN5CC6(CNC(=O)C6)C5)c(OC)c4)c3Cl)c2Cl)ccc1CN1CC2(CNC(=O)C2)C1` [Compound 501, 2-((3-Chloro-4-(2-chloro-3′-methoxy-4′-((7-oxo-2,6-diazaspiro[3.4]octan-2-yl)methyl)-[1,1′-biphenyl]-3-yl)-5′-methoxy-[2,3′-bipyridin]-6′-yl)methyl)-2,6-diazaspiro[3.4]octan-7-one] are 94.1 nM and 0.92 nM.
For `COc1cc(-c2nccc(-c3cccc(NC(=O)c4ccc(CNC5CCN(C(C)=O)CC5)cn4)c3C)c2Cl)ccc1CNC1CCN(C(C)=O)CC1` [Example 645, 5-(((1-Acetylpiperidin-4-yl)amino)methyl)-N-(3-(2-(4-(((1-acetylpiperidin-4-yl)amino)methyl)-3-methoxyphenyl)-3-chloropyridin-4-yl)-2-methylphenyl)picolinamide], in that order: 1410 nM and 0.44 nM.
On the same counts, the results for `COCC(=O)N1CC2(CN(Cc3ccc(-c4cccc(-c5ccnc(-c6ccc(CN7CC8(CNC(=O)C8)C7)c(OC)c6)c5Cl)c4Cl)nc3OC)C2)C1` [Example 687, 2-(4-(3-Chloro-4-(2-chloro-3-(6-methoxy-5-((6-(2-methoxyacetyl)-2,6-diazaspiro[3.3]heptan-2-yl)methyl)pyridin-2-yl)phenyl)pyridin-2-yl)-2-methoxybenzyl)-2,6-diazaspiro[3.4]octan-7-one] are 26.3 nM and 0.08 nM.
In the case of `COc1nc(-c2cccc(-c3ccnc(-c4ccc5c(c4)CNC5)c3Cl)c2Cl)ccc1CNCCO` [Compound 160, 2-(((6-(2-chloro-3-(3-chloro-2-(isoindolin-5-yl)pyridine-4-yl)phenyl)-2-methoxypyridin-3-yl)methyl)amino)ethan-1-ol], the EC50 on human PD-L1 (setting [2]) came out at 150 nM. The IC50 in assay [1] (PD-L1 His 6 nM, PD-1 Fc 6 nM) was 0.87 nM.
For `CNCc1ccc(-c2cccc(-c3ccnc(-c4ccc5c(CNC)cn(C)c5c4)c3Cl)c2Cl)nc1OC` [Example 276, 1-(6-(2-Chloro-3-(3-chloro-2-(1-methyl-3-((methylamino)methyl)-1H-indol-6-yl)pyridin-4-yl)phenyl)-2-methoxypyridin-3-yl)-N-methylmethanamine], in that order: ≥ 10000 nM and 1.04 nM.
Regarding “1-(6-((6-(2-Chloro-3-(3-chloro-2-(3-methoxy-4-((6-(2-methoxyacetyl)-2,6-diazaspiro[3.3]heptan-2-yl)methyl)phenyl)pyridin-4-yl)phenyl)-2-methoxypyridin-3-yl)methyl)-2,6-diazaspiro[3.3]heptan-2-yl)-2-methoxyethan-1-one [Example 594]”, a half-maximal response at human PD-L1 (EC50) required 33.7 nM. Moreover, in assay [1], the IC50 came out at 0.17 nM.
`CNCc1ccc(-c2cccc(-c3ccnc(-c4ccc(CN5CC6(CC(C(=O)OC(C)C)C6)C5)c(OC)c4)c3Cl)c2Cl)nc1OC` [Example 281, Isopropyl 2-(4-(3-chloro-4-(2-chloro-3-(6-methoxy-5-((methylamino)methyl)pyridin-2-yl)phenyl)pyridin-2-yl)-2-methoxybenzyl)-2-azaspiro[3.3]heptane-6-carboxylate] registered an EC50 at human PD-L1 (setting [2]) of 153 nM. This compound also registered an IC50 in assay [1] (PD-L1 His 6 nM, PD-1 Fc 6 nM) of 10.9 nM.
In the case of `COc1nc(-c2cccc(-c3ccnc(-c4ccc5c(c4)CCC[C@H]5NC[C@@H]4CCC(=O)N4)c3Cl)c2Cl)ccc1CNC[C@@H]1CCC(=O)N1` [Compound 185, (S)-5-((((6-(2-chloro-3-(3-chloro-2-((R)-5-((((S)-5-oxopyrrolidin-2-yl)methyl)amino)-5,6,7,8-tetrahydronaphthalen-2-yl)pyridine-4-yl)phenyl)-2-methoxypyridin-3-yl)methyl)amino)methyl)pyridine1335ne-2-one], the EC50 on human PD-L1 (setting [2]) came out at 19.3 nM. In assay [1] (PD-L1 His 6 nM, PD-1 Fc 6 nM), the midpoint of inhibition, the IC50, lay at 10.1 nM.
The compound `COc1cc(-c2nccc(-c3cccc(-c4ccc5c(CNC[C@H](C)O)cn(C)c5n4)c3Cl)c2Cl)ccc1CNC[C@@H]1CCC(=O)N1` [Compound 98, (S)-5-(((4-(3-chloro-4-(2-chloro-3-(3-((((S)-2-hydroxypropyl)amino)methyl)-1-methyl-1H-pyrrolo[2,3-b]pyridin-6-yl)phenyl)pyridin-2-yl)-2-methoxybenzyl)amino)methyl)pyrrolidin-2-one] registered an EC50 at human PD-L1 (setting [2]) of 30.5 nM. Also, in assay [1] (PD-L1 His 6 nM, PD-1 Fc 6 nM), half-maximal inhibition (IC50) required 0.7 nM.
On the same counts, the results for `COc1cc(-c2nccc(-c3cccc(-c4ccc(CN5CC6(CNC(=O)C6)C5)c(OC)n4)c3C)c2C)ccc1CN1CC2(CNC(=O)C2)C1` [Example 415, 2-((2-methoxy-6-(3-(2-(3-methoxy-4-((7-oxo-2,6-diazaspiro[3.4]octan-2-yl)methyl)phenyl)-3-methylpyridin-4-yl)-2-methylphenyl)pyridin-3-yl)methyl)-2,6-diazaspiro[3.4]octan-7-one] are 5100 nM and 0.25 nM.
Turning to `COc1cc(-c2nccc(-c3cccc(NC(=O)c4ccc(CNC[C@H](C)O)cn4)c3Cl)c2Cl)ccc1CNC[C@H](C)O` [Example 678, N-(2-Chloro-3-(3-chloro-2-(4-((((S)-2-hydroxypropyl)amino)methyl)-3-methoxyphenyl)pyridin-4-yl)phenyl)-5-((((S)-2-hydroxypropyl)amino)methyl)picolinamide], the EC50 at human PD-L1 (setting [2]) is 37 nM. The same compound yielded an IC50 in assay [1] (PD-L1 His 6 nM, PD-1 Fc 6 nM) of 0.02 nM.
For `COc1nc(-c2cccc(-c3ccnc(-c4cc(OC)c5nc(CN6CC(C)(C#N)C6)cn5c4)c3Cl)c2Cl)ccc1CNC1CCN(C(C)=O)CC1` [Example 477, 1-((6-(4-(3-(5-(((1-Acetylpiperidin-4-yl)amino)methyl)-6-methoxypyridin-2-yl)-2-chlorophenyl)-3-chloropyridin-2-yl)-8-methoxyimidazo[1,2-a]pyridin-2-yl)methyl)-3-methylazetidine-3-carbonitrile], in that order: 7480 nM and 21.4 nM.
On the same counts, the results for `COc1cc(-c2nccc(-c3cccc(-c4ccc(CN5CC6(CNC(=O)C6)C5)c(OC)n4)c3Cl)c2Cl)cc2c1CN(CC(O)CF)CC2` (stereo not shown) [Example 296, 2-((6-(2-Chloro-3-(3-chloro-2-(2-(3-fluoro-2-hydroxypropyl)-8-methoxy-1,2,3,4-tetrahydroisoquinolin-6-yl)pyridin-4-yl)phenyl)-2-methoxypyridin-3-yl)methyl)-2,6-diazaspiro[3.4]octan-7-one] are 49.8 nM and 3.3 nM.
For `COc1cc(-c2nccc(-c3cccc(NC(=O)c4ccc(CNCCO)cn4)c3Cl)c2Cl)ccc1CN1CC2(C1)CN(C(C)=O)C2` [Example 757, N-(3-(2-(4-((6-Acetyl-2,6-diazaspiro[3.3]heptan-2-yl)methyl)-3-methoxyphenyl)-3-chloropyridin-4-yl)-2-chlorophenyl)-5-(((2-hydroxyethyl)amino)methyl)picolinamide], in that order: 86.5 nM and 0.47 nM.
At human PD-L1 (setting [2]), `COc1cc(-c2nccc(-c3cccc(-c4ccc(CN5CC6(CNC(=O)C6)C5)c(OC)n4)c3F)c2Cl)ccc1CN1CC2(CNC(=O)C2)C1` [Example 438, 2-(4-(3-chloro-4-(2-fluoro-3-(6-methoxy-5-((7-oxo-2,6-diazaspiro[3.4]octan-2-yl)methyl)pyridin-2-yl)phenyl)pyridin-2-yl)-2-methoxybenzyl)-2,6-diazaspiro[3.4]octan-7-one] came in with an EC50 of 58.7 nM. This compound displayed an IC50 in assay [1] (PD-L1 His 6 nM, PD-1 Fc 6 nM) of 3.1 nM.
